From ChEMBL document CHEMBL1201862, “PubChem BioAssay data set” (2004)
Values belong to the molecule of their own block, whether it stands above or below them. Calls of active or inactive are those of the source.

What was measured:
[1] = target: T1, Histone-lysine N-methyltransferase NSD2 (Homo sapiens, UniProt O96028); assay type: biochemical
T1 sequence (O96028 whole entry): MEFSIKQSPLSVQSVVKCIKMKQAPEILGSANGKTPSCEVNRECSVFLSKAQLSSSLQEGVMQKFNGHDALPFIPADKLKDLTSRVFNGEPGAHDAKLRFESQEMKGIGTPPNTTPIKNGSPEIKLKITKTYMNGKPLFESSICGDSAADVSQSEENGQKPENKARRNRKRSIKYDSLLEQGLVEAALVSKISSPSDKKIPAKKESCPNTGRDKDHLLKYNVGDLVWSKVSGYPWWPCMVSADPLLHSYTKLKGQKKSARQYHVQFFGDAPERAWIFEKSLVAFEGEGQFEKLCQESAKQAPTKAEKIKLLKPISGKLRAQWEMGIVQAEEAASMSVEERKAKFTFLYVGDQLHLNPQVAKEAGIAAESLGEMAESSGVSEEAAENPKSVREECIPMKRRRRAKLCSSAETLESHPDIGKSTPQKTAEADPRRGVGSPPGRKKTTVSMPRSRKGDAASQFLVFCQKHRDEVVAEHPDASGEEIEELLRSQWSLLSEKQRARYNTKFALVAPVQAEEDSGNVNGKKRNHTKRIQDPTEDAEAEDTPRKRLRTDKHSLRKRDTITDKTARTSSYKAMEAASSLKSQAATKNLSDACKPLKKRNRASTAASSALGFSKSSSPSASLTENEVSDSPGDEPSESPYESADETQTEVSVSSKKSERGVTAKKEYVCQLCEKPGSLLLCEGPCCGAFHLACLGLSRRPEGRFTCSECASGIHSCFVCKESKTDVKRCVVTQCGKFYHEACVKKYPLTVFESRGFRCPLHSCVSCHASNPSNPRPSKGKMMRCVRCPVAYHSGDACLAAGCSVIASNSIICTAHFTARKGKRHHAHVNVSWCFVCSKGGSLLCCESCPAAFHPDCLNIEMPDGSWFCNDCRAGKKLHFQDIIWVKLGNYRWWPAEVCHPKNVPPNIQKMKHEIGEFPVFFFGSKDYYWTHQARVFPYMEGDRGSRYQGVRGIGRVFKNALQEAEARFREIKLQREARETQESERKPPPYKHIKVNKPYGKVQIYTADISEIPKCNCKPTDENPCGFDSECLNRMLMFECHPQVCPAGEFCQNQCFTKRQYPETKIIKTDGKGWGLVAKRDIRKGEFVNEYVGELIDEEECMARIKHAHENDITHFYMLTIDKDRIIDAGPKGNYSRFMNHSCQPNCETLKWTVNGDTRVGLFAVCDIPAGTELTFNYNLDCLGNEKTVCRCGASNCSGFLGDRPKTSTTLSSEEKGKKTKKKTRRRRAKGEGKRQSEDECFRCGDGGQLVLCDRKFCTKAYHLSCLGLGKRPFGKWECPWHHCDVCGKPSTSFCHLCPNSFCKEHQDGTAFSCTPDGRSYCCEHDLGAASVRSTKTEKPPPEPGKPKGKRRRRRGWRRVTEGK

HEK293 = assay: HEK cell cytotoxicity by LDH release, dose response, cytotoxicity control for IDE activator project, fluorescence, HEK cells (AID 588440); assay type: functional, cell-based; settings: Homo sapiens;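 further: cytotoxicity by LDH release measuring loss of membrane integrity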
[2] = target: Tyrosine-protein kinase Lck (Homo sapiens, UniProt P06239); assay type: functional;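 further: lck was assayed as one member of a kinase panel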
[3] = target: Inhibitor of nuclear factor kappa-B kinase subunit epsilon (Homo sapiens, UniProt Q14164); assay: Navigating the Kinome. Panel member name: IKBKE; assay type: functional
[4] = target: RAC-alpha serine/threonine-protein kinase (Homo sapiens, UniProt P31749); assay type: functional;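 further: AKT1 affinity measured as one member of a kinome-wide kinase profiling panel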
Sequence of RAC-alpha serine/threonine-protein kinase (P31749 whole entry): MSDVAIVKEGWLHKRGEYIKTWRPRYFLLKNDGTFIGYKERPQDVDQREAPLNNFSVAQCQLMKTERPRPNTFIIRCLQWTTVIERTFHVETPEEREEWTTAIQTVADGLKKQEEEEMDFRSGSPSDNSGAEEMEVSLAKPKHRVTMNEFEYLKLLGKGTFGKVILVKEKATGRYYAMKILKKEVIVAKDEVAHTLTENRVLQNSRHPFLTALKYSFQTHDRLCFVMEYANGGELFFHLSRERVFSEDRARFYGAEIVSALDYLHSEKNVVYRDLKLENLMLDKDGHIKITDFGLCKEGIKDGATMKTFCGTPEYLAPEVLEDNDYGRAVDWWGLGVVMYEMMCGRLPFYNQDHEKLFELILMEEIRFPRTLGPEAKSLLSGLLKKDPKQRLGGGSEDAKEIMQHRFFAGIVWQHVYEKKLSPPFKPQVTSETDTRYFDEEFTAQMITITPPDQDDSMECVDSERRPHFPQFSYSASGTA

[5] = target: MAP kinase-interacting serine/threonine-protein kinase 2 (Homo sapiens, UniProt Q9HBH9); assay type: functional
[6] = target: Protein kinase C delta type (Homo sapiens, UniProt Q05655); assay type: functional
Sequence of Protein kinase C delta type (Q05655 whole entry, canonical isoform): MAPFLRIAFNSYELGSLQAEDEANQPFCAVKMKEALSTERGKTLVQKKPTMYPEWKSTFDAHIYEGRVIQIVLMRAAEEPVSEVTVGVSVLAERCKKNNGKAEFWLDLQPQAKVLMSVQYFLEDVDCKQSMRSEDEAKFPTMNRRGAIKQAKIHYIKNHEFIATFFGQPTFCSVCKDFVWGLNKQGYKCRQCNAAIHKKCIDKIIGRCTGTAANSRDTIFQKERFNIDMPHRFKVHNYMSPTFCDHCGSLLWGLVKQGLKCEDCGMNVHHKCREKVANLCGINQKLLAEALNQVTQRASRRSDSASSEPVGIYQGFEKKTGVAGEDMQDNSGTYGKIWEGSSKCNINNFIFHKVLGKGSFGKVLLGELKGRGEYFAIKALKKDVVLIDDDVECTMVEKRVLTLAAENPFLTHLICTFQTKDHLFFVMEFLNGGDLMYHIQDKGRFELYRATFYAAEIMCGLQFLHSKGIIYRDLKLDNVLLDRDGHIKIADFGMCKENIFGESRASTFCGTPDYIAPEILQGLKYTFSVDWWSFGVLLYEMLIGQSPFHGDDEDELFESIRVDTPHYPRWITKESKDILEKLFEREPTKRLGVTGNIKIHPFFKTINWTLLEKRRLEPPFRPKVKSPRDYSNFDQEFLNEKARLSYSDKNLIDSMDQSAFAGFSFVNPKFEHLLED

[7] = target: Casein kinase I isoform delta (Homo sapiens, UniProt P48730); assay type: functional;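 further: measured as one member (CSNK1D) of a kinome panel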
[8] = target: Mast/stem cell growth factor receptor Kit (Homo sapiens, UniProt P10721); assay type: functional;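 further: KIT entry within a kinase panel assay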
[9] = target: MAP kinase-activated protein kinase 3 (Homo sapiens, UniProt Q16644); assay type: functional;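 further: value comes from a kinome-wide profiling panel in which MAPKAPK3 is one of the panel members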
[10] = target: Proto-oncogene tyrosine-protein kinase ROS (Homo sapiens, UniProt P08922); assay type: functional;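 further: ROS1 tested as one member of a kinome-wide kinase panel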
Sequence of Proto-oncogene tyrosine-protein kinase ROS (P08922 whole entry): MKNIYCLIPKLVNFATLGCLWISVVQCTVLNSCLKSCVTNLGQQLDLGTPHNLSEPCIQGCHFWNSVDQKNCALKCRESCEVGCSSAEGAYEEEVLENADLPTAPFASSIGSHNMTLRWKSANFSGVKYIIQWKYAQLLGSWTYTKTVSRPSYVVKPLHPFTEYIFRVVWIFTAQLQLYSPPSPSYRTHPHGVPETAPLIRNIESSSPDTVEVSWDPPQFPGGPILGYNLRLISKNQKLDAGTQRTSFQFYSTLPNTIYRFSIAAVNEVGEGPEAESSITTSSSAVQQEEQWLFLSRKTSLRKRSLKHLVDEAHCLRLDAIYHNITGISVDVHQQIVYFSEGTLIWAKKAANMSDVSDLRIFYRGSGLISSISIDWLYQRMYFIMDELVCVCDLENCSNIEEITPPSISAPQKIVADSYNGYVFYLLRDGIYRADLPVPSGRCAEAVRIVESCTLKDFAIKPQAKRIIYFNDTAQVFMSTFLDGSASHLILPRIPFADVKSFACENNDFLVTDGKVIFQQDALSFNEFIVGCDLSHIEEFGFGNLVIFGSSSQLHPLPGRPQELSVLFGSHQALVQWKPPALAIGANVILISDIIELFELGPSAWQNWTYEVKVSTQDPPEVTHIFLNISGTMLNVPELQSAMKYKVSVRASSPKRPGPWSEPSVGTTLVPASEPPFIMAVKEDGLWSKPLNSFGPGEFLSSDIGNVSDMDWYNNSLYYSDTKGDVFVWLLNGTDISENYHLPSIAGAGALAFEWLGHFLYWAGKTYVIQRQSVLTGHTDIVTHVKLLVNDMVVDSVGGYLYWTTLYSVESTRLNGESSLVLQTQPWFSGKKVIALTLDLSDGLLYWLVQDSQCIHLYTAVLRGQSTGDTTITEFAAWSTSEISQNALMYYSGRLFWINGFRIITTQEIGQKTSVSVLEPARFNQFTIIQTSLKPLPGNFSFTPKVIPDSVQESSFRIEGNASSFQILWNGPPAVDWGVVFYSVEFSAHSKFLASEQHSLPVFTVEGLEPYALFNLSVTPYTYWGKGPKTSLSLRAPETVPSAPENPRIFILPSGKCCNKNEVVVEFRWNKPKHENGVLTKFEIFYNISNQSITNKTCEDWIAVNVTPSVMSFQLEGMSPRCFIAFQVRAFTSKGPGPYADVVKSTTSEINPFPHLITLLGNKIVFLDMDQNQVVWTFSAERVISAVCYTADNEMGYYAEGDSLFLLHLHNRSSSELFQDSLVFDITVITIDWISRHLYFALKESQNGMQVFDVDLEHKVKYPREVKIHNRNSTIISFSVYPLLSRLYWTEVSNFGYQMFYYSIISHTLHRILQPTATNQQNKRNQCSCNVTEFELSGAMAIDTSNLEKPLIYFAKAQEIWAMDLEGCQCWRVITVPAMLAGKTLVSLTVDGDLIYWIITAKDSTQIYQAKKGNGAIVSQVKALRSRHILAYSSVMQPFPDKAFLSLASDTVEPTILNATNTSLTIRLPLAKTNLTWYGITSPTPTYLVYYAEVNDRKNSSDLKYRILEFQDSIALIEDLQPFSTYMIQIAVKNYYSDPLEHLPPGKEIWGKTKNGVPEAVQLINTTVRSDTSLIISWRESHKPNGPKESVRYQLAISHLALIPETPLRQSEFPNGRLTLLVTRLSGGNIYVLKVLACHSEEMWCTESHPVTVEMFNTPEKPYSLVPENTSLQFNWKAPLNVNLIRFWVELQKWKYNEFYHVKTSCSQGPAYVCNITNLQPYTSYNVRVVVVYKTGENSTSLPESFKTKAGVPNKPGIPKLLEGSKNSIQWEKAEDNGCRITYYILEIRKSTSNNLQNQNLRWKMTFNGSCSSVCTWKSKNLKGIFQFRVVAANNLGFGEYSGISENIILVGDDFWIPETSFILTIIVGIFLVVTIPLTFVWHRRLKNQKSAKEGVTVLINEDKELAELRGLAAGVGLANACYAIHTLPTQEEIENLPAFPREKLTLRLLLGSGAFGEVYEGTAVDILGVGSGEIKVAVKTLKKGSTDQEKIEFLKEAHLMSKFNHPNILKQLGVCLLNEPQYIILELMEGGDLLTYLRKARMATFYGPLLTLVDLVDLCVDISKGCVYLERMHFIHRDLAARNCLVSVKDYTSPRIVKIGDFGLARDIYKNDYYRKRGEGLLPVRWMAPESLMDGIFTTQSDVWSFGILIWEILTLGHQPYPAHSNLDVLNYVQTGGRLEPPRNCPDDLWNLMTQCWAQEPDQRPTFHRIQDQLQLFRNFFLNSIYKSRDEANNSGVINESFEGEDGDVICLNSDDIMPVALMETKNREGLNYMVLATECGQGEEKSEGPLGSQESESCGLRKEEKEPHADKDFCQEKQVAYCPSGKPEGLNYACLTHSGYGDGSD

[11] = target: Receptor tyrosine-protein kinase erbB-4 (Homo sapiens, UniProt Q15303); assay type: functional;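 further: ERBB4 member of a kinome-wide kinase profiling panel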
[12] = target: Megakaryocyte-associated tyrosine-protein kinase (Homo sapiens, UniProt P42679); assay type: functional;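 further: affinity measured as one member of a kinase panel (Navigating the Kinome) against MATK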
[13] = target: Mitogen-activated protein kinase kinase kinase kinase 5 (Homo sapiens, UniProt Q9Y4K4); assay type: functional;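 further: measured as one member of a kinome-spanning kinase panel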
Sequence of Mitogen-activated protein kinase kinase kinase kinase 5 (Q9Y4K4 whole entry): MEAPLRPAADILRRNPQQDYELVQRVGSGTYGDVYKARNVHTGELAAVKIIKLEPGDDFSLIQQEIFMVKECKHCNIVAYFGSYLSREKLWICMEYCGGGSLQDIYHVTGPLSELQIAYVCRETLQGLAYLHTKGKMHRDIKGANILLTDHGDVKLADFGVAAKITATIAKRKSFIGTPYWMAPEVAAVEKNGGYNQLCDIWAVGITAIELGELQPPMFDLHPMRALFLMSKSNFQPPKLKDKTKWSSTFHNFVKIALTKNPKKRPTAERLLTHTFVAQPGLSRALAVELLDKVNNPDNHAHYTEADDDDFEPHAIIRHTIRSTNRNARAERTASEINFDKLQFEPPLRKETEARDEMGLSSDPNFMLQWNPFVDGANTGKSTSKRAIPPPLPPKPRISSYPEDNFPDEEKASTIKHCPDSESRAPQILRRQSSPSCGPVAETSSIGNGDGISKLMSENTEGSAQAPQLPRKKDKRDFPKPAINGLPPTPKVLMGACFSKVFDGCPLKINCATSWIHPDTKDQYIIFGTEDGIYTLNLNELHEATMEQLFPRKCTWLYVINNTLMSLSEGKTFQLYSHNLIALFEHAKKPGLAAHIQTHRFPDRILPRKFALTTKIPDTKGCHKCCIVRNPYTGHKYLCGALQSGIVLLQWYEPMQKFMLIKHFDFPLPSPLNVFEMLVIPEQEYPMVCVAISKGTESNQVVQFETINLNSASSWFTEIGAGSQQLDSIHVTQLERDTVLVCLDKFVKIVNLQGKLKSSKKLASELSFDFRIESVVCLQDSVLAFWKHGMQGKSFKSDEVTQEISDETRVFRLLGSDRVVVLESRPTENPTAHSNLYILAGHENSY

[14] = target: Proto-oncogene tyrosine-protein kinase Src (Homo sapiens, UniProt P12931); assay type: functional;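 further: SRC entry within a kinome-wide kinase profiling panel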
[15] = target: Cyclin-dependent kinase 2 (Homo sapiens, UniProt P24941); assay type: functional;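 further: CDK2 measured as one member of a broad kinome profiling panel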
[16] = target: Fibroblast growth factor receptor 3 (Homo sapiens, UniProt P22607); assay type: functional
[17] = target: 3-phosphoinositide-dependent protein kinase 1 (Homo sapiens, UniProt O15530); assay type: functional;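 further: value comes from the Navigating the Kinome panel, PDPK1 member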
Sequence of 3-phosphoinositide-dependent protein kinase 1 (O15530 whole entry): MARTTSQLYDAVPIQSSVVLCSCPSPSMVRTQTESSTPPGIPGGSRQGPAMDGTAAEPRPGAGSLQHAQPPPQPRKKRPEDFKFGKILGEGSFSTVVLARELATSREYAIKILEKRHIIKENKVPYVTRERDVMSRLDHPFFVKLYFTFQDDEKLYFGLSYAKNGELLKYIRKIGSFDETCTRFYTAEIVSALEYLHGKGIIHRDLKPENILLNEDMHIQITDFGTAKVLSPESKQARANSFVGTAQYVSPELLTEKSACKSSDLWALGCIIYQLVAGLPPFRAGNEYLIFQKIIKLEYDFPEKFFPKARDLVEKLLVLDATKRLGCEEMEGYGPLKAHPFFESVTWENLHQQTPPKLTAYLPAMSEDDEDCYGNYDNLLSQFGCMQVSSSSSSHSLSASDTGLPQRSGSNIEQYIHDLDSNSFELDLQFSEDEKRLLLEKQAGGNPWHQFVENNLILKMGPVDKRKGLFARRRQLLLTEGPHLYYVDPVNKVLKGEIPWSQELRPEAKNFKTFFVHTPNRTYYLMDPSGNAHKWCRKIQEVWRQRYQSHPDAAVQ

Caspase-3 = target: T2, Caspase-3 (Homo sapiens, UniProt P42574); assay type: functional;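 further: Dose-response selectivity test against caspase-3 for candidate inhibitors of sentrin-specific proteases (SENPs)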
T2 sequence (P42574 whole entry): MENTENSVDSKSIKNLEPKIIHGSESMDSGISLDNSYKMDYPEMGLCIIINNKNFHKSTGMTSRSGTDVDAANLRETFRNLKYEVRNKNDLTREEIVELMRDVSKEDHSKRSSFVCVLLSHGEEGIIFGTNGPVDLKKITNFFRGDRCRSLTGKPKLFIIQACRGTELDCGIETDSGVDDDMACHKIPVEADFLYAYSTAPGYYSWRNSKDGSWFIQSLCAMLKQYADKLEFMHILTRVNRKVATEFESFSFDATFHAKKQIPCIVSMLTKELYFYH

SMILES: CCN(CC)CCCC(C)n1c2nc(=O)[nH]c(=O)c-2nc2cc(Cl)ccc21 (configuration not stated)
AC50 [1]: 1.18 µM (active)
IC50 (HEK293): > 89.2 µM (inactive)

Ki [2]: > 6.31 µM (inactive)
Ki [3]: > 3.16 µM (inactive)
SMILES: COc1cccc(CNC(=O)c2cnc(-c3ccncc3)nc2)c1

Ki [4]: 2 µM (active)
pKi [4]: 5.7
Ki [5]: 0.0398 µM (active)
pKi [5]: 7.4
Ki [6]: 0.0631 µM (active)
pKi [6]: 7.2
Ki [7]: 0.02 µM (active)
pKi [7]: 7.7
Ki [8]: > 1.26 µM (inactive)
Ki [9]: > 10 µM (inactive)
Ki [10]: 0.158 µM (active)
pKi [10]: 6.8
Ki [11]: > 3.98 µM (inactive)
Ki [12]: > 2 µM (inactive)
Ki [13]: 0.0794 µM (active)
pKi [13]: 7.1
Ki [14]: > 2 µM (inactive)
Ki [15]: 0.0126 µM (active)
pKi [15]: 7.9
Ki [16]: > 2 µM (inactive)
Ki [17]: 0.501 µM (active)
pKi [17]: 6.3
SMILES: OC1CCC(Nc2nc(Cl)cc(-c3c[nH]c4ncccc34)n2)CC1 (configuration not stated)

IC50 (Caspase-3): 8.43 µM (active)
SMILES: O=C(COC(=O)c1ccc([N+](=O)[O-])s1)Nc1ccc(F)cc1
